Measurements taken from patent publication US7425557B2, “Inhibitors of glycogen synthase kinase 3” (Novartis Vaccines and Diagnostics, Inc., priority 1998, dated 2008).

Biological target: human GSK3β (Homo sapiens, UniProt P49841)
Test: Screening for GSK3 inhibitory activity using a cell-free assay
Assay type: biochemical
Details: read-out: IC50 with respect to GSK3
Procedure, shortened: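 Radiometric cell-free assay with recombinant human GSK3β phosphorylating a biotinylated peptide substrate for 3 h. Reactions were stopped with 50 μM ATP/20 mM EDTA and captured on streptavidin plates. Incorporated radiolabel was counted by scintillation and plotted against compound concentration.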

human GSK3β, sequence (P49841 whole entry): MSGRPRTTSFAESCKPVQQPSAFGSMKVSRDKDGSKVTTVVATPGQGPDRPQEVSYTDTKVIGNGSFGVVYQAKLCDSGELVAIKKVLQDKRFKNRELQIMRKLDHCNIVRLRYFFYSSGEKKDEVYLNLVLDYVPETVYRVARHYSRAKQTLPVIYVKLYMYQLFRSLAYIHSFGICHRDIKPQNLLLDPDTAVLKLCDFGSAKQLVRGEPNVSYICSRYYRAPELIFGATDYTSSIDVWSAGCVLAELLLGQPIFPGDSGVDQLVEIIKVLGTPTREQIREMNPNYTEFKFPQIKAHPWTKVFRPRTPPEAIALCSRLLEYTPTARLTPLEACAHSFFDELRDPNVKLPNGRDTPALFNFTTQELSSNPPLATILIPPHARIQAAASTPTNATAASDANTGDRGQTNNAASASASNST

Structure (SMILES)	IC50
N#Cc1ccc(NCCNc2ccc(-n3ccnc3)c(-c3ccc(Cl)cc3Cl)n2)nc1 [6-[(2-{[6-(2,4-dichlorophenyl)-5-imidazolyl-2-pyridyl]amino}ethyl)amino]pyridine-3-carbonitrile]	≤ 1 µM
Cc1nc(NCCNc2ccc([N+](=O)[O-])cn2)nc(-c2ccccc2)c1C(=O)O [6-methyl-2-({2-[(5-nitro(2-pyridyl))amino]ethyl}amino)-4-phenylpyrimidine-5-carboxylic acid]	≤ 10 µM
N#Cc1ccc(NCCNc2ccc([N+](=O)[O-])c(NCc3ccccc3)n2)nc1 [6-{[2-({5-nitro-6-[benzylamino]-2-pyridyl}amino)ethyl]amino}pyridine-3-carbonitrile]	≤ 10 µM
CN(C)CCc1noc(-c2cnc(NCCNc3ccc([N+](=O)[O-])c(N)n3)nc2-c2ccc(Cl)cc2Cl)n1 [(2-{5-[2-({2-[(6-amino-5-nitro(2-pyridyl))amino]-ethyl}amino)-4-(2,4-dichlorophenyl)pyrimidin-5-yl](1,2,4-oxadiazol-3-yl)}ethyl)-dimethylamine]	≤ 1 µM
c1ccc(-c2ccnc(NCCc3ccccn3)n2)cc1 [(4-phenylpyrimidin-2-yl)(2-(2-pyridyl)ethyl)amine]	≤ 10 µM
c1ccc(-c2ccnc(NCCNc3ccccn3)n2)cc1 [(4-phenylpyrimidin-2-yl)[2-(2-pyridylamino)ethyl]amine]	≤ 10 µM
O=[N+]([O-])c1ccc(NCCNc2nccc(NCc3cccc(Br)c3)n2)nc1 [(4-{[(3-bromophenyl)methyl]amino}pyrimidin-2-yl){2-[(5-nitro(2-pyridyl))amino]ethyl}-amine]	≤ 10 µM
O=[N+]([O-])c1cnc(NCCNc2ccccn2)nc1-c1ccccc1 [(5-nitro-4-phenylpyrimidin-2-yl)[2-(2-pyridylamino)ethyl]amine]	≤ 1 µM
O=[N+]([O-])c1ccc(NCCNc2ccc([N+](=O)[O-])c(NCc3ccc(Cl)cc3Cl)n2)nc1 [(6-{[(2,4-dichlorophenyl)methyl]amino}-5-nitro(2-pyridyl)){2-[(5-nitro(2-pyridyl))amino]ethyl}amine]	≤ 10 µM
N#Cc1ccc(-c2nc(NCCNc3ccc([N+](=O)[O-])cn3)ncc2C(=O)NC(CO)C(N)=O)cc1 (stereo not shown) [N-(1-carbamoyl-2-hydroxyethyl)[4-(4-cyanophenyl)-2-({2-[(5-nitro(2-pyridyl))-amino]ethyl}amino)pyrimidin-5-yl]carboxamide]	≤ 1 µM
O=C(NCC(c1ccccc1)c1ccccc1)c1ccc(-c2ccnc(NCCNc3ccc([N+](=O)[O-])cn3)n2)cc1 [N-(2,2-diphenylethyl){4-[2-({2-[(5-nitro(2-pyridyl))amino]ethyl}amino)pyrimidin-4-yl]phenyl}carboxamide]	≤ 10 µM
O=C(NCCc1ccc(Cl)cc1Cl)c1ccc(-c2ccnc(NCCNc3ccc([N+](=O)[O-])cn3)n2)cc1 [N-[2-(2,4-dichlorophenyl)ethyl]{4-[2-({2-[(5-nitro(2-pyridyl))amino]ethyl}-amino)pyrimidin-4-yl]phenyl}carboxamide]	≤ 10 µM
CN(C)CCN(C)C(=O)c1cnc(NCCNc2ccc([N+](=O)[O-])cn2)nc1-c1ccc(C#N)cc1 [N-[2-(dimethylamino)ethyl][4-(4-cyanophenyl)-2-({2-[(5-nitro(2-pyridyl))amino]ethyl}amino)pyrimidin-5-yl]-N-methylcarboxamide]	≤ 1 µM
CNCC(=O)Nc1cnc(NCCNc2ccc([N+](=O)[O-])c(N)n2)nc1-c1ccc(Cl)cc1Cl [N-[2-({2-[(6-amino-5-nitro(2-pyridyl))amino]ethyl}amino)-4-(2,4-dichlorophenyl)pyrimidin-5-yl]-2-(methylamino)acetamide]	≤ 1 µM
COc1cccc(CNC(=O)c2ccc(-c3ccnc(NCCNc4ccc([N+](=O)[O-])cn4)n3)cc2)c1OC [N-[(2,3-dimethoxyphenyl)methyl]{4-[2-({2-[(5-nitro(2-pyridyl))amino]ethyl}amino)pyrimidin-4-yl]phenyl}carboxamide]	≤ 10 µM
O=C(NCc1ccc(F)c(F)c1)c1ccc(-c2ccnc(NCCNc3ccc([N+](=O)[O-])cn3)n2)cc1 [N-[(3,4-difluorophenyl)methyl]{4-[2-({2-[(5-nitro(2-pyridyl))amino]ethyl}amino)pyrimidin-4-yl]phenyl}carboxamide]	≤ 10 µM
COc1ccc(CNC(=O)c2ccc(-c3ccnc(NCCNc4ccc([N+](=O)[O-])cn4)n3)cc2)cc1OC [N-[(3,4-dimethoxyphenyl)methyl]{4-[2-({2-[(5-nitro(2-pyridyl))amino]ethyl}amino)pyrimidin-4-yl]phenyl}carboxamide]	≤ 10 µM
O=C(NCc1cccc(Br)c1)c1ccc(-c2ccnc(NCCNc3ccc(C(F)(F)F)cn3)n2)cc1 [N-[(3-bromophenyl)methyl](4-{2-[(2-{[5-(trifluoromethyl)(2-pyridyl)]amino}ethyl)amino]pyrimidin-4-yl}phenyl)-carboxamide]	≤ 10 µM
O=C(NCc1cccc(Br)c1)c1ccc(-c2ccnc(NCCNc3ccc4ccccc4n3)n2)cc1 [N-[(3-bromophenyl)methyl][4-(2-{[2-(2-quinolylamino)ethyl]amino}pyrimidin-4-yl)phenyl]carboxamide]	≤ 10 µM
O=C(NCc1cccc(Br)c1)c1ccc(-c2ccnc(NCCNc3ncccn3)n2)cc1 [N-[(3-bromophenyl)methyl][4-(2-{[2-(pyrimidin-2-ylamino)ethyl]amino}pyrimidin-4-yl)phenyl]carboxamide]	≤ 1 µM
N#Cc1ccc(NCCNc2nccc(-c3ccc(C(=O)NCc4cccc(Br)c4)cc3)n2)nc1 [N-[(3-bromophenyl)methyl]{4-[2-({2-[(5-cyano(2-pyridyl))amino]ethyl}-amino)pyrimidin-4-yl]phenyl}carboxamide]	≤ 1 µM
O=C(NCc1cccc(Br)c1)c1ccc(-c2ccnc(NCCNc3ccc([N+](=O)[O-])cn3)n2)cc1 [N-[(3-bromophenyl)methyl]{4-[2-({2-[(5-nitro(2-pyridyl))amino]ethyl}amino)pyrimidin-4-yl]phenyl}carboxamide]	≤ 10 µM

Second part, the compound after the results:

IC50	Structure (SMILES)
≤ 1 µM	Cc1cn(-c2ccc(NCCNc3ccc(C#N)cn3)nc2-c2ccc(Cl)cc2Cl)cn1 [6-[(2-{[6-(2,4-dichlorophenyl)-5-(4-methylimidazolyl)-2-pyridyl]-amino}ethyl)amino]pyridine-3-carbonitrile]
≤ 10 µM	CCc1ccc(-c2nc(NCCNc3ccc(C#N)cn3)ccc2N2CCN(C)CC2=O)cc1 [6-[(2-{[6-(4-ethylphenyl)-5-(4-methyl-2-oxo-1-piperazinyl)-2-pyridinyl]amino}ethyl)amino]nicotinonitrile]
≤ 10 µM	NC(=O)C(Cc1ccccc1)NC(=O)c1ccc(-c2ccnc(NCCc3ccccn3)n2)cc1 (stereo not shown) [N-(1-carbamoyl-2-phenyl-ethyl)(4-{2-[(2-(2-pyridyl)ethyl)amino]pyrimidin-4-yl}phenyl)carboxamide]
≤ 10 µM	Cc1nc(NCCNc2ccc([N+](=O)[O-])cn2)ncc1C(=O)NC(Cc1ccccc1)C(N)=O (stereo not shown) [N-(1-carbamoyl-2-phenylethyl)[4-methyl-2-({2-[(5-nitro(2-pyridyl))amino]ethyl}amino)pyrimidin-5-yl]carboxamide]
≤ 1 µM	N#Cc1ccc(-c2nc(NCCNc3ccc([N+](=O)[O-])cn3)ncc2C(=O)NCCN)cc1 [N-(2-aminoethyl)[4-(4-cyanophenyl)-2-({2-[(5-nitro(2-pyridyl))amino]ethyl}amino)pyrimidin-5-yl]carboxamide]
≤ 10 µM	COCCNC(=O)c1ccc(-c2ccnc(NCCNc3ccc([N+](=O)[O-])cn3)n2)cc1 [N-(2-methoxyethyl){4-[2-({2-[(5-nitro(2-pyridyl))amino]ethyl}amino)pyrimidin-4-yl]phenyl}carboxamide]
≤ 1 µM	N#Cc1ccc(-c2nc(NCCNc3ccc([N+](=O)[O-])cn3)ncc2C(=O)NCC(N)=O)cc1 [N-(carbamoylmethyl)[4-(4-cyanophenyl)-2-({2-[(5-nitro(2-pyridyl))amino]ethyl}amino)pyrimidin-5-yl]carboxamide]
≤ 1 µM	N#CCNC(=O)c1cnc(NCCNc2ccc([N+](=O)[O-])cn2)nc1-c1ccc(C#N)cc1 [N-(cyanomethyl)[4-(4-cyanophenyl)-2-({2-[(5-nitro(2-pyridyl))amino]ethyl}amino)pyrimidin-5-yl]carboxamide]
≤ 1 µM	CC(C)(C)NC(=O)c1cnc(NCCNc2ccc([N+](=O)[O-])cn2)nc1-c1ccc(C#N)cc1 [N-(tert-butyl)[4-(4-cyano-phenyl)-2-({2-[(5-nitro(2-pyridyl))amino]ethyl}amino)pyrimidin-5-yl]carboxamide]
≤ 1 µM	CN(C)CCNC(=O)c1cnc(NCCNc2ccc([N+](=O)[O-])cn2)nc1-c1ccc(C#N)cc1 [N-[2-(dimethylamino)ethyl][4-(4-cyanophenyl)-2-({2-[(5-nitro(2-pyridyl))-amino]ethyl}amino)pyrimidin-5-yl]carboxamide]
≤ 1 µM	CC(=O)Nc1cnc(NCCNc2ccc([N+](=O)[O-])cn2)nc1-c1ccc(Cl)cc1Cl [N-[4-(2,4-dichlorophenyl)-2-({2-[(5-nitro(2-pyridyl))amino]ethyl}amino)pyrimidin-5-yl]-acetamide]
≤ 10 µM	O=C(NCc1ccc(Cl)c(Cl)c1)c1ccc(-c2ccnc(NCCNc3ccc([N+](=O)[O-])cn3)n2)cc1 [N-[(3,4-dichlorophenyl)methyl]{4-[2-({2-[(5-nitro(2-pyridyl))amino]ethyl}amino)pyrimidin-4-yl]phenyl}carboxamide]
≤ 10 µM	O=C(NCc1cc(Cl)cc(Cl)c1)c1ccc(-c2ccnc(NCCNc3ccc([N+](=O)[O-])cn3)n2)cc1 [N-[(3,5-dichlorophenyl)methyl]{4-[2-({2-[(5-nitro(2-pyridyl))amino]ethyl}amino)pyrimidin-4-yl]phenyl}carboxamide]
≤ 10 µM	O=C(NCc1cccc(Br)c1)c1ccc(-c2ccnc(NCCNc3ccc([N+](=O)[O-])cc3)n2)cc1 [N-[(3-bromophenyl)-methyl]{4-[2-({2-[(4-nitrophenyl)amino]ethyl}amino)pyrimidin-4-yl]phenyl}carboxamide]
≤ 10 µM	COc1cccc(CCNc2nccc(-c3ccc(C(=O)NCc4cccc(Br)c4)cc3)n2)c1 [N-[(3-bromophenyl)methyl][4-(2-{[2-(3-methoxyphenyl)ethyl]amino}pyrimidin-4-yl)phenyl]carboxamide]
